Measurements as given in patent publication US5182367A, “5-lipoxygenase activating protein” (priority 1990, dated 1993).

Legend:
18kD protein (FLAP) [1] = target: T1, 18kD protein (FLAP) (Homo sapiens, UniProt P20292); assay: photoaffinity labelling of the 18kD protein with 125I-L-669,083; assay type: binding; conditions: for inhibition of photoaffinity labelling of the 18kD protein: 125I-L-669,083 probe, result in words
T1 construct: Incubation of ^125 I-L-669,083 with neutrophil extracts followed by irradiation with ultraviolet light; from tissue; host or cells: neutrophil extracts / human leukocyte membranes (endogenous protein)
T1 sequence (P20292 1-161): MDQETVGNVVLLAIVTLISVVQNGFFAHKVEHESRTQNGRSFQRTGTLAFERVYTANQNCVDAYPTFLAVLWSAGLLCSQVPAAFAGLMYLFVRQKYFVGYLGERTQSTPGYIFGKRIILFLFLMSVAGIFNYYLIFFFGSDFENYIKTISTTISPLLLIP
Source text: The cellular target of MK-886 was identified by its specific labelling with an I^125 radio-labelled photoaffinity probe (^125 I-L-669,083) and by its retention on agarose gels to which analogues of MK-886 had been bound. […] This protein co-migrated on SDS-polyacrylamide gels with the photoaffinity-labelled protein. The 18kD protein comprised a minor portion of the […]-centrifugation pellet protein and was essentially absent from other cellular fractions.
A polyclonal rabbit antibody was prepared to the N-terminal 39 amino acids of the 18kD protein. The peptide immunogen was prepared by fusion of the DNA sequence coding for the peptide to the N-terminus of Che Y protein, and its expression in and purification from E. coli (Gan, Z. R., Gene 79, 159-166 (1989)). […] When human leukocyte membranes labelled with the ^125 I-L-669,083 photoaffinity probe were immunoprecipitated with the antipeptide antibody, a single labelled protein of Mr 18,000 was observed which was absent in membranes labelled in the presence of competing MK-886.

18kD protein (FLAP) [2] = target: T2, 18kD protein (FLAP) (Rattus norvegicus, UniProt P20291); assay: elution of the 18kD protein from MK-886 analogue affinity columns; assay type: binding, rat and human; conditions: solubilized neutrophil membranes, result in words
T2 sequence (P20291 1-161): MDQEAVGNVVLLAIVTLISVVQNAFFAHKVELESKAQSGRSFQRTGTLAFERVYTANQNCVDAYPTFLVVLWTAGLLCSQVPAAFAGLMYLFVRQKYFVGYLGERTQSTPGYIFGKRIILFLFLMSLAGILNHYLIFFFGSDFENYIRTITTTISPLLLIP
Procedure: Rat peritoneal neutrophils (Ham, E. A. et al. Proc. Natn. Acad. Sci. USA 80, 4349-4353 (1983)) and human peripheral neutrophils (Boyum, A. Scand. J. Clin. Lab. Invest. (suppl. 97) 21, 77-89 (1968)) at 10^8 cells/ml were sonicated in 50 mM Tris-HCl buffer, pH 7.4, 140 mM NaCl, 2 mM EDTA, 1 mM DTT (dithiotreitol), 10% glycerol (homogenization buffer), together with the protease inhibitors 1 mM phenylmethylsulphonyl fluoride, […], and 10 mM furyl saccharine. After removal of 1000 g and 10,000 g-centrifugation pellets, the 100,000 g pellet was resuspended (3 mg/ml) in the homogenization buffer.
To purify FLAP, the microsome suspension was solubilized on ice for 30 minutes in 50 mM Tris-HCl buffer, pH 7.4, with 140 mM NaCl, 0.5 mM DTT, 5% glycerol and 1% CHAPS detergent (3-[(3-cholamidopropyl)-dimethylammonio]-1-propanesulfonate). After centrifugation for 10 minutes at 30,000 g, the supernatant was applied to 3 ml columns (6×10^9 cell equivalents per column) containing the affinity gel which was prepared by coupling MK-886 in THF (tetrahydrofuran) to pre-activated Affi-Gel 10, capping with ethanolamine,and washing with isopropanol. The columns were washed with […] solubilization buffer for 16 hours at 5° C. and eluted for 1 hour with four column volumes of buffer containing 100 μM MK-886.

leukotriene biosynthesis = leukotriene biosynthesis / production (cells not specified); assay type: cell-based; conditions: result in words, cells not given
[3] = system: osteosarcoma 143 cell line expressing 5-LO and FLAP; assay: A23187-stimulated LT synthesis in the 5-LO/FLAP cell line; assay type: cell-based, human
Procedure: (§1) When the parental osteosarcoma 143 cells or the cells expressing 5-LO or FLAP alone were treated with the Ca^2+ ionophore A23187, no arachidonic acid metabolites were detected. […] A23187-treated rat neutrophils produced these products, as well as 5-HETE and the LTB4 metabolites 20-hydroxy LTB4 and 20-carboxy LTB4. The 5-LO/FLAP cell line produced only 14% of the neutrophil level of LTB4 (0.15 nmol/mg protein versus 1.1 nmol/mg protein), while it produced 41% as much of the LTA4 hydrolysis products (0.064 nmol 6-trans LTB4 and 0.059 nmol 6-trans-12-epi LTB4 /mg protein versus 0.18 nmol 6-trans LTB4 and 0.12 nmol 6-trans-12-epi LTB4 /mg protein).
(§2) Normal rat peritoneal neutrophils were prepared as described by Ham, E. A. et al. (1983, supra). Osteosarcoma 143 cell lines expressing 5-LO were isolated by the method of Rouzer, C. A. et al., J. Biol. Chem. 263, 10135-10140 (1988). The expression vector used contains the CMV immediate early promoter which drives the expression of the 5-LO gene, a hygromycin resistance gene as a selectable marker, and the EBV origin of replication (Rouzer et al., supra). An EcoRI fragment derived from the RBL-1 cDNA clone containing the cDNA insert for rat FLAP was cloned into the EcoRI site of the vector pSVLneo (Dixon, R. A. F. et al., Nature 326, 73-79 (1987)). […]

[4] = system: rat peritoneal neutrophils; assay: A23187-stimulated LT synthesis in neutrophils; assay type: cell-based
Procedure: as §1, §2

[5] = system: leukotriene synthesis in human leukocytes; assay: inhibition of leukotriene synthesis in human leukocytes; assay type: cell-based; conditions: Leukocyte; human leukocytes at similar protein concentrations

Row | SMILES | inhibition of photoaffinity labelling of the 18kD protein (18kD protein (FLAP) [1]) | elution of the 18kD protein from affinity columns/gels (18kD protein (FLAP) [2]) | inhibition of leukotriene biosynthesis / production (leukotriene biosynthesis) | LT synthesis blocked [3] | LT synthesis blocked [4] | IC50 (18kD protein (FLAP) [1]) [nM] | IC50 [5] [nM]
1 | COc1ccc2c(c1)c(C(C)C(=O)O)c(C)n2Cc1ccc(Cl)cc1 [L-583,916, 2-(1-p-chlorobenzyl-5-methoxy-2-methylindol-3-yl)propionic acid] | did not inhibit photoaffinity labelling | nor did they elute this protein | do not inhibit leukotriene biosynthesis |  |  |  | 
2 | O=c1ccc2nc3ccccc3sc-2c1Cl [L-615,919, 4-chloro-3H-phenothiazin-3-one] |  |  |  | blocked LT synthesis | blocked LT synthesis |  | 
3 | COc1ccc2nc3cc(OC)c(=O)c(Br)c-3sc2c1 [L-651,392] | nor inhibited photoaffinity labelling | neither eluted the 18kD protein | inhibitory effects on leukotriene production |  |  |  | 
4 | CC(C)c1ccc2c(c1)c(SC(C)(C)C)c(CC(C)(C)C(=O)O)n2Cc1ccc(Cl)cc1 [MK-886, 3-[1-(4-chlorobenzyl)-3-t-butylthio-5-isopropylindol-2-yl]-2,2-dimethylpropanoic acid] |  | eluted by MK-886 |  | blocked LT synthesis | blocked LT synthesis | 80 | 100
5 | Clc1ccc(C(c2ccc(Cl)cc2)n2cc[n+](CC(OCc3ccc(Cl)cc3Cl)c3ccc(Cl)cc3Cl)c2)cc1 (stereo not drawn) [calmidazolium] | nor inhibited photoaffinity labelling | neither eluted the 18kD protein | inhibitory effects on leukotriene production |  |  |  | 
6 | CC(Cc1ccc(O)c(O)c1)C(C)Cc1ccc(O)c(O)c1 (stereo not drawn) [nordihydroguairaretic acid] | nor inhibited photoaffinity labelling | neither eluted the 18kD protein | inhibitory effects on leukotriene production |  |  |  | 
7 | CN1CCN(CCCN2c3ccccc3Sc3ccc(C(F)(F)F)cc32)CC1 [trifluoroperazine] | nor inhibited photoaffinity labelling |  | inhibitory effects on leukotriene production |  |  |  | 
